Read-outs that look alike come from different tables or passages of the source.
Experiments:
[1] = test system: spontaneously hypertensive conscious rats; test: Antihypertensive effect in spontaneously hypertensive conscious rats ("SH" rats); format: in vivo, rat (Wistar-Okamoto); conditions: for change in vivo at 5 mg/kg / change in vivo at 10 mg/kg / change in vivo at 2.5 mg/kg: Rattus norvegicus, po
Experimental: The blood pressure of rats was measured before treatment and hourly after drug administration till the 24th posttreatment hour. The test compounds were administered orally, by gavage.

[2] = biological target: T1, 1,4-dihydropyridine receptor; test: Receptor binding studies (displacement of 3H-nitrendipine, heart microsomal preparation); conditions: displacement of 50% of 3H-nitrendipine
T1 construct: to the heart microsomal preparation; from tissue; host or cells: heart microsomal preparation

[3] = test system: anesthetized, normotensive cats; test: Hypotensive effect in anesthetized, normotensive cats; format: in vivo, cat; conditions: 1 mg/kg id.
Experimental: A tube was inserted in the trachea of cats anesthetized with ip.35 mg/kg of pentobarbital sodium to ensure spontaneous respiration. The femoral artery and vein were both cannulated unilaterally. The vegetative test compounds (adrenaline, isoproterenol) were administered through the venous cannule. The mean arterial blood pressure was measured by joining the arterial cannule to a Statham P23Db pressure transducer and electromanometer. The heart rate was determined by a cardiotachometer triggered by arterial pulse-wave.
Various doses of the test compounds were administered through a cannule inserted into the duodenum.

[4] = test system: conscious rats with renal hypertension; test: Antihypertensive effect in rats with renal hypertension ("RH" rats); format: in vivo, rat (CFY male); conditions: for Systolic blood pressure, 0 h: 0 h (baseline)
Experimental: The test was performed according to the method of Grollman [Proc. Soc. Exptl. […] The test compounds were administered orally.

[5] = test system: conscious rats with DOCA-induced hypertension; test: Antihypertensive effect in rats with DOCA-induced hypertension ("DH" rats); format: in vivo, rat; conditions: for Systolic blood pressure, 0 h: 0 h (baseline)
Experimental: The test was performed according to Cunning et al. [J. Pharm. Exp. Ther. 161, 88 (1981)].

[6] = biological target: T2, potential-mediated calcium channel (Rattus norvegicus, UniProt P22002); test: Calcium-antagonistic effect on an isolated vessel preparation (portal vein); conditions: depolarizing solution (90 mM KCl), CaCl2 2.5 and 5.0 mM, 37° C., pH 7.4, read-out: Inhibition of the potential-mediated calcium channel, IC50
T2 construct: Portal veins were obtained from decapitated male rats; from tissue; host or cells: rat portal vein (longitudinally incised venous segment)
T2 sequence (P22002 whole entry): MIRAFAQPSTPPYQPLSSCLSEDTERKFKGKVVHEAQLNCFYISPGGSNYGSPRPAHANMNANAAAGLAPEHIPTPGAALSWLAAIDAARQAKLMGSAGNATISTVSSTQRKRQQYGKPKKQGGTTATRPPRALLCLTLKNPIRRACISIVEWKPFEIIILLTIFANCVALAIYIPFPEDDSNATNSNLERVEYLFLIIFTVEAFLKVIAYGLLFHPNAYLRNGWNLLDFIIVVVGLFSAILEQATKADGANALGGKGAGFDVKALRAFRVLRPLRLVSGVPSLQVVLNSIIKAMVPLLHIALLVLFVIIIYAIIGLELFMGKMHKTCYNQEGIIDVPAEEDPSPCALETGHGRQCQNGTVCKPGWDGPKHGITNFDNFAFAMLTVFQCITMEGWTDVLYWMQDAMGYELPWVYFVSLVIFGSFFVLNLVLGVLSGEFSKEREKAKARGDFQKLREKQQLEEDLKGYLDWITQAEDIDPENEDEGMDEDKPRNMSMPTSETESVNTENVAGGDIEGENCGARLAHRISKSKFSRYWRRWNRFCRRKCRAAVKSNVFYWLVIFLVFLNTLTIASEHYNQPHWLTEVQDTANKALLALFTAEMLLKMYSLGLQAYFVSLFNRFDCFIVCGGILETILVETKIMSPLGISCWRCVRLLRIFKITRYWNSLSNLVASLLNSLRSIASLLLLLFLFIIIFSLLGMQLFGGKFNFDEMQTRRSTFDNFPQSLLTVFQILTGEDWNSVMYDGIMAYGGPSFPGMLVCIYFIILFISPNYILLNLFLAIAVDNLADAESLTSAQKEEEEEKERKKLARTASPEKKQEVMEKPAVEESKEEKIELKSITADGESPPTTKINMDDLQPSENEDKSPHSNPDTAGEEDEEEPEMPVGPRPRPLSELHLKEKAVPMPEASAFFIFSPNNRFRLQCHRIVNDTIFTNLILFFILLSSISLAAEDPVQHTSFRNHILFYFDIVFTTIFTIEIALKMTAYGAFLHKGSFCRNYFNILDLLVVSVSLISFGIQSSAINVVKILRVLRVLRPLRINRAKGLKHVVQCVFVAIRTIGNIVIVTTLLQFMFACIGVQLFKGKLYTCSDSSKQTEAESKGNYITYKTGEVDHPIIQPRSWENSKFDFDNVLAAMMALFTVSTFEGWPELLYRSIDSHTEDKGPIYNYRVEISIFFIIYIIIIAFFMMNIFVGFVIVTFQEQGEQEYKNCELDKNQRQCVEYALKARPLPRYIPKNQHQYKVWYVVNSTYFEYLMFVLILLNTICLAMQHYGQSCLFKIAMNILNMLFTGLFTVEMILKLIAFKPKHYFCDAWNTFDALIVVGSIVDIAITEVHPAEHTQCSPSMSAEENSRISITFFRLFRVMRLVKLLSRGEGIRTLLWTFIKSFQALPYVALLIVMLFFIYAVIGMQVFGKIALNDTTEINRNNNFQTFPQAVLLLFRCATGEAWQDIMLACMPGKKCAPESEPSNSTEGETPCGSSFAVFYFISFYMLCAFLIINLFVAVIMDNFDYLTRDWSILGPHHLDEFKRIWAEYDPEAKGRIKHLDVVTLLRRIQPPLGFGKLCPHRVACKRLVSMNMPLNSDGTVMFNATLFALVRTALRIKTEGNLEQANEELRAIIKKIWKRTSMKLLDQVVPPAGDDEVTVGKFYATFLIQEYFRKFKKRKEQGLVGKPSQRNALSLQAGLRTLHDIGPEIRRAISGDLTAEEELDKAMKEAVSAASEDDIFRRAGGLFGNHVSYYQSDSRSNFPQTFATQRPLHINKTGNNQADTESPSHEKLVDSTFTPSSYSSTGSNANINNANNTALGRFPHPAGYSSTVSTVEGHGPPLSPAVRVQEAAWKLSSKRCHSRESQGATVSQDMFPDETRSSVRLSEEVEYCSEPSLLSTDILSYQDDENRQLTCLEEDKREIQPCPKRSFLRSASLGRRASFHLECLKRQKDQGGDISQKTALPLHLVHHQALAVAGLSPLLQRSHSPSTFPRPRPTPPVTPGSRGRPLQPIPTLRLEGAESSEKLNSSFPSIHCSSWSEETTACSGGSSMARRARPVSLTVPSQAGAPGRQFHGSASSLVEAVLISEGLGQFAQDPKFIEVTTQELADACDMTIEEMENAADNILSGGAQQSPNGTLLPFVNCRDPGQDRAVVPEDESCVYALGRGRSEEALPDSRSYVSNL
T2 sequence (P54290 25-943 partner limits assumed): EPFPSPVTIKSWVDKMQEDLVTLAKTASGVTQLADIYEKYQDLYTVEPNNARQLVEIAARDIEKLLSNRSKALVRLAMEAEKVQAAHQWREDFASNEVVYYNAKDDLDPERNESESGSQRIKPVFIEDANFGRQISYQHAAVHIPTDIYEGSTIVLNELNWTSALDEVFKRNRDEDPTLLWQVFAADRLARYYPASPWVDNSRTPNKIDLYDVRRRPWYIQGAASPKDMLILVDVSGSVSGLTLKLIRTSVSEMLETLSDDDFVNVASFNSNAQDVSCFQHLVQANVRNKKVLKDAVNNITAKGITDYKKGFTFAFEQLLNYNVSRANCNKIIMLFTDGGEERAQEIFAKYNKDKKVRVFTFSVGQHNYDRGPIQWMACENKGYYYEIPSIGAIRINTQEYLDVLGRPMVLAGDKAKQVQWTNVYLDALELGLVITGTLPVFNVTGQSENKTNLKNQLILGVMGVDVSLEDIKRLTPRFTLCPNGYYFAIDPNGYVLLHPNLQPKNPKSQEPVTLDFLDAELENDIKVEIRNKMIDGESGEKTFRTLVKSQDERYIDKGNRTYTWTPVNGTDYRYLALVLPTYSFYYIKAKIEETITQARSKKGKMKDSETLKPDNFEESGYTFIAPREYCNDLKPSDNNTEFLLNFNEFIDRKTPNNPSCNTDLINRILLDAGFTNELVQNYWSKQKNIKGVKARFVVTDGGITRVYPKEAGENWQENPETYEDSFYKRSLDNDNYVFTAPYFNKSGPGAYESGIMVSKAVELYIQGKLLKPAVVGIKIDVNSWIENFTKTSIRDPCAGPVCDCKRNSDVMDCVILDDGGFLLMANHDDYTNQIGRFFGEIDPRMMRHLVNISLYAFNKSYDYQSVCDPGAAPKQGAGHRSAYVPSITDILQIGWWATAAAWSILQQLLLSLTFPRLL
T2 sequence (P54290 944-1091 partner limits assumed): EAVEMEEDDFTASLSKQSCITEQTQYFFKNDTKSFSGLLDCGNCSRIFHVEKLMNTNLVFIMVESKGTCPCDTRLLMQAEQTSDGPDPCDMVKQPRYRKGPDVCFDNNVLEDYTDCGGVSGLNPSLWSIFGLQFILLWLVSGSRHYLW
Experimental: Portal veins were obtained from decapitated male rats weighing 300 to 350 g. The longitudinally incised venous segment was suspended in an organ chamber (10 ml) filled with physiological saline solution under resting tension of 1 g. Its upper end was attached to a HSI force-displacement transducer. Isometric contractions were recorded with a Beckman Dynograph.
After the initial equilibration period in a calcium-free Krebs-Ringer bicarbonate solution (KRB) the vein was exposed to a depolarizing solution (calcium-free KRB containing 90 mM of KCl) for 10 minutes. In order to determine the cumulative contractile responses CaCl2 was added in an end-concentration of 2.5 and 5.0 mM, resp. Each medium was oxygenated with carbogen gas and maintained at 37° C. and pH 7.4.
The influence of the test compounds on the contraction was determined by incubating the veins in the depolarizing solution for 10 minutes before and during exposure to Ca^2+. Each vein preparation was subjected to a single concentration of the test compound.
For each experiment the 100% responses were considered as the maximum contractile responses during the control Ca curves. The contractions after exposure to the test compounds were expressed as the percentage of these values.

[7] = test system: PGF2alpha induced uterus contractions (isolated rat uterus); test: In vitro uterus relaxant activity in the isolated rat uterus (inhibition of PGF2alpha induced contraction); conditions: 10^-6 M test compound
Experimental: The test was performed according to the method of Gaddum and Hammeed [Brit. […] The inhibitory activity of 10^-6 M doses of the test compounds on the PGF2alpha induced uterus contractions was determined.

[8] = 10 mg/kg p.o., 2 h, read-out: Systolic blood pressure reduction in %, 2 h
[9] = 10 mg/kg p.o., 5 h, read-out: Systolic blood pressure reduction in %, 5 h
[10] = 10 mg/kg p.o., 24 h, read-out: Systolic blood pressure reduction in %, 24 h

For `COC(=O)C1=C(C)NC(C)=C(C(=O)OC)C1c1ccccc1NC(=O)c1ccc([N+](=O)[O-])cc1` [Example 7], the “Systolic blood pressure, 2 h” value ([1]; 5 mg/kg p.o., 2 h) was 175.2 Hgmm, the “Systolic blood pressure, 5 h” value ([1]; 5 mg/kg p.o., 5 h) was 157.6 Hgmm and the “Systolic blood pressure, 24 h” value ([1]; 5 mg/kg p.o., 24 h) was 217.6 Hgmm. The “Systolic blood pressure, 2 h” value ([1]; 10 mg/kg p.o., 2 h) was 164.0 Hgmm, the “Systolic blood pressure, 5 h” value ([1]; 10 mg/kg p.o., 5 h) was 164.0 Hgmm and the “Systolic blood pressure, 24 h” value ([1]; 10 mg/kg p.o., 24 h) was 230.0 Hgmm. For the same compound, the change in vivo at 5 mg/kg ([1]; 5 mg/kg p.o., 2 h, read-out: Systolic blood pressure reduction in %, 2 h) was -15%, the change in vivo at 5 mg/kg ([1]; 5 mg/kg p.o., 5 h, read-out: Systolic blood pressure reduction in %, 5 h) was -24% and the change in vivo at 5 mg/kg ([1]; 5 mg/kg p.o., 24 h, read-out: Systolic blood pressure reduction in %, 24 h) was 5%. The change in vivo at 10 mg/kg [1, 8] was -28%, the change in vivo at 10 mg/kg [1, 9] was -28% and the change in vivo at 10 mg/kg [1, 10] was 1%. The IC50 [2] was 6.3 ± 0.05 nM, the “Mean arterial pressure, 5 min” value [3] was 115 Hgmm and the “Mean arterial pressure, 15 min” value [3] was 60 Hgmm. The “Mean arterial pressure, 30 min” value [3] was 50 Hgmm, the “Mean arterial pressure, 60 min” value [3] was 60 Hgmm and the “Mean arterial pressure, 120 min” value [3] was 85 Hgmm. For the same compound, the “Systolic blood pressure, 0 h” value ([4]; 5 mg/kg p.o.) was 206.6 Hgmm, the “Pressure reduction in %, 2 h” value ([4]; 5 mg/kg p.o.) was -15% and the “Systolic blood pressure, 2 h” value ([4]; 5 mg/kg p.o.) was 177.7 Hgmm. For the same compound, the “Pressure reduction in %, 5 h” value ([4]; 5 mg/kg p.o.) was -13%, the “Systolic blood pressure, 5 h” value ([4]; 5 mg/kg p.o.) was 188.6 Hgmm and the “Pressure reduction in %, 24 h” value ([4]; 5 mg/kg p.o.) was “+3%”. For the same compound, the “Systolic blood pressure, 24 h” value ([4]; 5 mg/kg p.o.) was 213.3 Hgmm, the “Systolic blood pressure, 0 h” value ([4]; 10 mg/kg p.o.) was 198.8 Hgmm and the “Pressure reduction in %, 2 h” value ([4]; 10 mg/kg p.o.) was -31%. For the same compound, the “Systolic blood pressure, 2 h” value ([4]; 10 mg/kg p.o.) was 138.8 Hgmm, the “Pressure reduction in %, 5 h” value ([4]; 10 mg/kg p.o.) was -25% and the “Systolic blood pressure, 5 h” value ([4]; 10 mg/kg p.o.) was 150.0 Hgmm. The “Pressure reduction in %, 24 h” value ([4]; 10 mg/kg p.o.) was “+6%”, the “Systolic blood pressure, 24 h” value ([4]; 10 mg/kg p.o.) was 212.2 Hgmm and the “Systolic blood pressure, 0 h” value ([5]; 5 mg/kg p.o.) was 176.8 Hgmm. The “Pressure reduction in %, 2 h” value ([5]; 5 mg/kg p.o.) was -24%, the “Systolic blood pressure, 2 h” value ([5]; 5 mg/kg p.o.) was 135.7 Hgmm and the “Pressure reduction in %, 5 h” value ([5]; 5 mg/kg p.o.) was -16%. The “Systolic blood pressure, 5 h” value ([5]; 5 mg/kg p.o.) was 149.4 Hgmm, the “Pressure reduction in %, 24 h” value ([5]; 5 mg/kg p.o.) was “+2%” and the “Systolic blood pressure, 24 h” value ([5]; 5 mg/kg p.o.) was 180.8 Hgmm. For the same compound, the “Systolic blood pressure, 0 h” value ([5]; 10 mg/kg p.o.) was 176.2 Hgmm, the “Pressure reduction in %, 2 h” value ([5]; 10 mg/kg p.o.) was -28% and the “Systolic blood pressure, 2 h” value ([5]; 10 mg/kg p.o.) was 126.7 Hgmm. The “Pressure reduction in %, 5 h” value ([5]; 10 mg/kg p.o.) was -17%, the “Systolic blood pressure, 5 h” value ([5]; 10 mg/kg p.o.) was 147.5 Hgmm and the “Pressure reduction in %, 24 h” value ([5]; 10 mg/kg p.o.) was 0%. For the same compound, the “Systolic blood pressure, 24 h” value ([5]; 10 mg/kg p.o.) was 177.5 Hgmm and the IC50 [6] was 0.5 nM.

`COC(=O)C1=C(C)NC(C)=C(C(=O)OC)C1c1ccccc1NC(=O)c1ccc(C)cc1` [Example 15] was tested, and the “Systolic blood pressure, 2 h” value ([1]; 2.5 mg/kg p.o., 2 h) was 141.4 Hgmm, the “Systolic blood pressure, 5 h” value ([1]; 2.5 mg/kg p.o., 5 h) was 139.2 Hgmm and the “Systolic blood pressure, 24 h” value ([1]; 2.5 mg/kg p.o., 24 h) was 193.8 Hgmm. For the same compound, the change in vivo at 2.5 mg/kg ([1]; 2.5 mg/kg p.o., 2 h, read-out: Systolic blood pressure reduction in %, 2 h) was -31%, the change in vivo at 2.5 mg/kg ([1]; 2.5 mg/kg p.o., 5 h, read-out: Systolic blood pressure reduction in %, 5 h) was -32% and the change in vivo at 2.5 mg/kg ([1]; 2.5 mg/kg p.o., 24 h, read-out: Systolic blood pressure reduction in %, 24 h) was -5%. The IC50 [2] was 15.5 ± 3.5 nM, the “Mean arterial pressure, 5 min” value [3] was 90 Hgmm and the “Mean arterial pressure, 15 min” value [3] was 65 Hgmm. For the same compound, the “Mean arterial pressure, 30 min” value [3] was 65 Hgmm, the “Mean arterial pressure, 60 min” value [3] was 73 Hgmm and the “Mean arterial pressure, 120 min” value [3] was 90 Hgmm. For the same compound, the IC50 [6] was 3 nM.

With `COC(=O)C1=C(C)NC(C)=C(C(=O)OC)C1c1ccccc1NC(=O)C(F)(F)F` [Example 34, 2,6-Dimethyl-3,5-bis(methoxycarbonyl)-4-(2-trifluoro-acetamidophenyl)-1,4-dihydropyridine] the “Systolic blood pressure, 2 h” value ([1]; 10 mg/kg p.o., 2 h) was 170.0 Hgmm, the “Systolic blood pressure, 5 h” value ([1]; 10 mg/kg p.o., 5 h) was 182.0 Hgmm and the “Systolic blood pressure, 24 h” value ([1]; 10 mg/kg p.o., 24 h) was 216.0 Hgmm. It also gave a change in vivo at 10 mg/kg [1, 8] of -25%, a change in vivo at 10 mg/kg [1, 9] of -19% and a change in vivo at 10 mg/kg [1, 10] of -4%. For the same compound, the IC50 [2] was 16 ± 1.6 nM, the “Mean arterial pressure, 5 min” value [3] was 90 Hgmm and the “Mean arterial pressure, 15 min” value [3] was 60 Hgmm. For the same compound, the “Mean arterial pressure, 30 min” value [3] was 75 Hgmm, the “Mean arterial pressure, 60 min” value [3] was 90 Hgmm and the “Mean arterial pressure, 120 min” value [3] was 105 Hgmm. For the same compound, the “Inhibition of PGF2alpha induced contraction” value [7] was 98.0%, the “Systolic blood pressure, 0 h” value ([4]; 10 mg/kg p.o.) was 198.0 Hgmm and the “Pressure reduction in %, 2 h” value ([4]; 10 mg/kg p.o.) was -28%. For the same compound, the “Systolic blood pressure, 2 h” value ([4]; 10 mg/kg p.o.) was 141.0 Hgmm, the “Pressure reduction in %, 5 h” value ([4]; 10 mg/kg p.o.) was -14% and the “Systolic blood pressure, 5 h” value ([4]; 10 mg/kg p.o.) was 167.0 Hgmm. The “Pressure reduction in %, 24 h” value ([4]; 10 mg/kg p.o.) was 0%, the “Systolic blood pressure, 24 h” value ([4]; 10 mg/kg p.o.) was 199.0 Hgmm and the “Systolic blood pressure, 0 h” value ([5]; 5 mg/kg p.o.) was 192.0 Hgmm. For the same compound, the “Pressure reduction in %, 2 h” value ([5]; 5 mg/kg p.o.) was -22%, the “Systolic blood pressure, 2 h” value ([5]; 5 mg/kg p.o.) was 150.0 Hgmm and the “Pressure reduction in %, 5 h” value ([5]; 5 mg/kg p.o.) was -16%. The “Systolic blood pressure, 5 h” value ([5]; 5 mg/kg p.o.) was 163.0 Hgmm, the “Pressure reduction in %, 24 h” value ([5]; 5 mg/kg p.o.) was 0% and the “Systolic blood pressure, 24 h” value ([5]; 5 mg/kg p.o.) was 193.0 Hgmm. The “Systolic blood pressure, 0 h” value ([5]; 10 mg/kg p.o.) was 189.0 Hgmm, the “Pressure reduction in %, 2 h” value ([5]; 10 mg/kg p.o.) was -23% and the “Systolic blood pressure, 2 h” value ([5]; 10 mg/kg p.o.) was 146.0 Hgmm. The “Pressure reduction in %, 5 h” value ([5]; 10 mg/kg p.o.) was -30%, the “Systolic blood pressure, 5 h” value ([5]; 10 mg/kg p.o.) was 134.0 Hgmm and the “Pressure reduction in %, 24 h” value ([5]; 10 mg/kg p.o.) was -2%. The “Systolic blood pressure, 24 h” value ([5]; 10 mg/kg p.o.) was 186.0 Hgmm and the IC50 [6] was 2.5 nM.

Reference: patent US4829076A, “Novel dihydropyridines having calcium antagonistic and antihypertensive activity” (Alkaloida Vegyeszeti Gyar, priority 1986, dated 1989)
